Test results: US12624004B2 (Fudan University, priority 2019, dated 2026)
Where a name gives a salt, the structure may show the parent alone. Read-outs that look alike come from different tables or passages of the source.

Columns and labels:
κ opioid receptor = target: T1, κ opioid receptor (Homo sapiens, UniProt P41145); experiment: Competition binding assay on membranes of CHO cells expressing κ opioid receptor, [3H]-labeled ligand; conditions: for Ki: read-out: κOR Ki
T1 construct: expressed in transfected cells; host or cells: CHO cells (membranes)
How it was run: (§1)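 CHO membranes (20–30 μg protein) incubated with [3H]-labeled ligand at 1–2 nM and test compounds, 30 min at 30° C; nonspecific binding with 1 μM corresponding ligand. Filtered on GF/C, washed with 50 mM Tris-HCl pH 7.4, scintillation-counted. IC50 converted to Ki by Ki=IC50/(1+[L]/Kd).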

δ opioid receptor = target: T2, δ opioid receptor (Homo sapiens, UniProt P41143); experiment: Competition binding assay on membranes of CHO cells expressing δ opioid receptor, [3H]-labeled ligand; conditions: for Ki: Table 5-1, read-out: δOR Ki
T2 construct: expressed in transfected cells; host or cells: CHO cells (membranes)
How it was run: as §1

μ opioid receptor = target: T3, μ opioid receptor (Homo sapiens, UniProt P35372); experiment: Competition binding assay on membranes of CHO cells expressing μ opioid receptor, [3H]-labeled ligand; conditions: for Ki: read-out: μOR Ki
T3 construct: expressed in transfected cells; host or cells: CHO cells (membranes)
How it was run: as §1

Female mice = experiment: In vivo hot plate method analgesia test; conditions: intraperitoneal; for Maximum percentage effective analgesia (% MPE): Table 5-2, hot plate 55° C.; for Maximum percentage effective analgesia (% MPE) / % MPE @ 10 mg/kg: 10 mg/kg dose; for % MPE @ 10 mg/kg: Table 3-2, hot plate 55° C.; for % MPE (5 mg/kg): Table 2-2, hot plate 55° C.
How it was run: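 Female mice (~20 g) on a 55° C hot plate, hindpaw response latency as pain threshold (pre-screen 5–30 s, 60 s cut-off). Latencies at 15, 30, 60 and 120 min after intraperitoneal dosing. %MPE = (post−pre latency)/(60−pre)×100, ED50 derived from %MPE.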

[1] = 0.5 h, Table 3-1, 1 μM concentration of compounds, read-out: κOR Binding rate (%)
[2] = 0.5 h, Table 3-1, 1 μM concentration of compounds, read-out: δOR Binding rate (%)
[3] = Table 3-1, 1 μM concentration of compounds, read-out: μOR Binding rate (%)
[4] = 0.5 h, Table 2-1, 1 μM concentration of compound, read-out: δOR Binding rate (%)

Compound `COc1cccc(C2(O)CCN(C(=O)Cc3cccc(F)c3)CC2CN(C)C)c1.Cl` (stereo not shown) [FWBE12, 1-(3-((Dimethylamino)methyl)-4-hydroxy-4-(3-methoxyphenyl)piperidin-1-yl)-2-(3-fluorophenyl)ethyl-1-one hydrochloride] has a Ki (κ opioid receptor; Table 5-1) of 2360 ± 95.5 nM, a Ki (δ opioid receptor) of 2390 ± 46 nM and a Ki (μ opioid receptor; Table 5-1) of 82.3 ± 3.8 nM. For the same compound, the “Maximum percentage effective analgesia (% MPE)” value (Female mice) was 88.38%.
With `COc1cccc(C2(O)CCN(C(=O)Cc3cccc(Cl)c3)CC2CN(C)C)c1.Cl` (stereo not shown) [FWBE9, 2-(3-Chlorophenyl)-1-(3-((dimethylamino)methyl)-4-hydroxy-4-(3-methoxyphenyl)piperidin-1-yl)ethyl-1-one hydrochloride] the Ki (κ opioid receptor; Table 5-1) was 1010 ± 60.1 nM, the Ki (δ opioid receptor) was 1640 ± 148 nM and the Ki (μ opioid receptor; Table 5-1) was 24.2 nM. For the same compound, the “Maximum percentage effective analgesia (% MPE)” value (Female mice) was 86.38%.
With `COc1cccc(C2(O)CCN(C(=O)NC34CC5CC(CC(C5)C3)C4)CC2CN(C)C)c1` [FWBF14, N-((3S,5S,7S)-adamantan-1-yl)-3-((dimethylamino)methyl)-4-hydroxy-4-(3-methoxyphenyl) piperidine-1-carboxamide hydrochloride] the inhibition at 1 µM (κ opioid receptor; [1]) was 17.9 ± 4.8%, the inhibition at 1 µM (δ opioid receptor; [2]) was 0% and the inhibition at 1 µM (μ opioid receptor; [3]) was 13.5 ± 4.8%. The “% MPE @ 10 mg/kg” value (Female mice) was 24.15%.
For `COc1cccc(C2(O)CCN(C(=O)C3(c4ccccc4)CCC3)CC2CN(C)C)c1.Cl` (stereo not shown) [FWBE25, (3-((Dimethylamino)methyl)-4-hydroxy-4-(3-methoxyphenyl)piperidin-1-yl)(1-phenylcyclobutyl) methanone hydrochloride], the Ki (κ opioid receptor; Table 5-1) was 205 ± 40.9 nM, the Ki (δ opioid receptor) was 717 ± 253 nM and the Ki (μ opioid receptor; Table 5-1) was 80.9 ± 5.67 nM. The “Maximum percentage effective analgesia (% MPE)” value (Female mice) was 5.03%.
`COc1cccc(C2(O)CCN(C(=O)Cc3ccsc3)CC2CN(C)C)c1.Cl` (stereo not shown) [FWBE2, 1-(3-((Dimethylamino)methyl)-4-hydroxy-4-(3-methoxyphenyl)piperidin-1-yl)-2-(thiophen-3-yl)ethyl-1-one hydrochloride] was tested, and the inhibition at 1 µM (κ opioid receptor; 0.5 h, read-out: κOR Combination rate (%)) was 20.8 ± 1.9%, the inhibition at 1 µM (δ opioid receptor; 0.5 h, read-out: δOR Combination rate (%)) was 14.7 ± 0.9% and the inhibition at 1 µM (μ opioid receptor; 0.5 h, read-out: μOR Combination rate (%)) was 40.6 ± 0.9%. For the same compound, the “Maximum percentage effective analgesia (% MPE)” value (Female mice) was 42%.
With `COc1cccc(C2(O)CCC(NS(=O)(=O)c3cccs3)CC2CN(C)C)c1.Cl` (stereo not shown) [N-(3-((Dimethylamino)methyl)-4-hydroxy-4-(3-methoxyphenyl)cyclohexyl)thiophene-2-sulfonamide hydrochloride] the inhibition at 10 µM (κ opioid receptor; 0.5 h, Table 1-1, 10 μM concentration of compound, read-out: κOR Binding rate (%)) was 37 ± 6.8%, the inhibition at 10 µM (δ opioid receptor; 0.5 h, Table 1-1, 10 μM concentration of compound, read-out: δOR Binding rate (%)) was 0% and the inhibition at 10 µM (μ opioid receptor; Table 1-1, 10 μM concentration of compound, mean ± SD of three measurements, read-out: μOR Binding rate (%)) was 57 ± 4.8%. The “Maximum percentage effective analgesic (% MPE)” value (Female mice; Table 1-2, hot plate 55° C., 5 mg/kg dose) was 19.5%.
Compound `COc1cccc(C2(O)CCN(S(=O)(=O)Cc3ccccc3F)CC2CN(C)C)c1.Cl` (stereo not shown) [FWBH14, 3-((Dimethylamino)methyl)-1-((2-fluorobenzyl)sulfonyl)-4-(3-methoxyphenyl)piperidin-4-ol hydrochloride] has an inhibition at 1 µM (κ opioid receptor; 0.5 h, Table 2-1, 1 μM concentration of compound, read-out: κOR Binding rate (%)) of 17.6 ± 6.34%, an inhibition at 1 µM (δ opioid receptor; [4]) of 40.8 ± 2.66% and a Ki (μ opioid receptor; Table 2-1) of 29.6 ± 2.53 nM. For the same compound, the “% MPE (5 mg/kg)” value (Female mice; 5 mg/kg dose) was 81.20%.
Work on `COc1cccc(C2(O)CCN(C(=O)Nc3ccc(Cl)c(Cl)c3)CC2CN(C)C)c1.Cl` (stereo not shown) [FWBF5, N-(3,4-dichlorophenyl)-3-((dimethylamino)methyl)-4-hydroxy-4-(3-methoxyphenyl)piperidine-1-carboxamide hydrochloride] yielded an inhibition at 1 µM (κ opioid receptor; [1]) of 18.2 ± 1.9%, an inhibition at 1 µM (δ opioid receptor; [2]) of 0% and an inhibition at 1 µM (μ opioid receptor; [3]) of 46 ± 5.4%. The “% MPE @ 10 mg/kg” value (Female mice) was 25.42%.
For `COc1cccc(C2(O)CCN(C(=O)Nc3cccc(F)c3)CC2CN(C)C)c1` (stereo not shown) [FWBF7, 3-((Dimethylamino)methyl)-N-(3-fluorophenyl)-4-hydroxy-4-(3-methoxyphenyl)piperidine-1-carboxamide hydrochloride], the inhibition at 1 µM (κ opioid receptor; [1]) was 0%, the inhibition at 1 µM (δ opioid receptor; [2]) was 9.2 ± 7.8% and the inhibition at 1 µM (μ opioid receptor; [3]) was 36.7 ± 7.4%. The ED50 (Female mice; Mus musculus, ip, Table 3-2, hot plate) was 4.12 mg/kg.
`COc1cccc(C2(O)CCN(S(=O)(=O)C[C@]34CC[C@H](CC3O)C4(C)C)CC2CN(C)C)c1` (stereo partly drawn) [FWBH27, 3-((Dimethylamino)methyl)-1-((((1S,4R)-2-hydroxy-7,7-dimethylbicyclo[2.2.1]hept-1-yl)methyl)sulfonyl)-4-(3-methoxyphenyl)piperidin-4-ol hydrochloride] showed a Ki (κ opioid receptor; Table 2-1) of 27.7 ± 3.9 nM, an inhibition at 1 µM (δ opioid receptor; [4]) of 24.8 ± 0.77% and a Ki (μ opioid receptor; Table 2-1) of 32.5 ± 3.3 nM. For the same compound, the “% MPE (5 mg/kg)” value (Female mice; 5 mg/kg dose) was 12.21%.
